Assays:
[1] = Extraction of acrylic acid and 3-hydroxypropionic acid from aqueous stock solutions using various extractants; settings: 22° C.; for Partition Coefficient, D AA / Partition Coefficient, D 3HP: extractant phase/aqueous phase
From the text: In this Example, there were utilized five (5) aqueous stock solutions. The aqueous stock solutions comprise 3-hydroxypropionic acid and acrylic acid. In each of the five aqueous stock solutions, the concentration of 3-hydroxypropionic acid is approximately two times higher than the concentration of the acrylic acid.
In carrying out the following extractions of 3-hydroxypropionic acid and acrylic acid from aqueous stock solutions comprising 3-hydroxypropionic acid and acrylic acid, the following organic extractants were used: • a. Decanol • b. Methyl isobutyl ketone (MiBK) • c. Isopropyl ether • d. Methyl acrylate • e. Methyl propionate • f. Methylene chloride (CH2Cl2) • g. Toluene • h. Isopropyl acetate • i. Ethyl acetate • j. 50/50 wt % Tributyl phosphate (TBP) and ISOPAR-K isoparaffinic hydrocarbon available from Exxon Mobil Corporation The extraction procedure utilized in the Examples herein for separating and recovering 3-hydroxypropionic acid and acrylic acid from aqueous solutions comprising 3-hydroxypropionic acid and acrylic acid is set forth below.
1. To a 15 ml centrifuge tube 5 ml of an acid stock solution and an extractant were added. Masses of the empty centrifuge tube, the aqueous solution and extractant were recorded.
2. The tube was placed on a platform shaker and the contents in the tube were mixed at 230 rpm for 30 minutes at 22° C. (rpm designates revolutions per minute).
3. At the end of mixing, the tube was centrifuged at 4500 rpm for 5 minutes.
4. The volumes of the aqueous and extractant phases in the tube were recorded.
5. The aqueous phase was separated from the extractant phase and the masses of both phases were recorded.
6. The acrylic acid and the 3-hydroxypropionic acid in the aqueous solution were analyzed by HPLC.
7. The concentrations of acrylic acid and 3-hydroxypropionic acid in the organic extractant were calculated by subtracting the concentrations of acrylic acid and 3-hydroxypropionic acid in the aqueous phase from the initial concentration in the stock solution.

[2] = Distillation of organic extractant from acrylic acid solution in the presence of water; format: physicochemical; settings: distillation at about 100 mm Hg, room temperature; 18.5 g isopropyl ether, 3 g acrylic acid, 9 g water
Procedure: In this Example, there is shown the process for separating and recovering acrylic acid from a solution comprising acrylic acid and an organic extractant that has a boiling point lower than 100° C. The process involves distillation of the solution, in the presence of water, to distill the organic extractant having a boiling point lower than 100° C., resulting in an aqueous acrylic acid solution.
More particularly, 18.5 grams of isopropyl ether, 3 grams of acrylic acid, and 9 grams of distilled water were introduced into a 100 ml round bottom flask. The organic extractant, isopropyl ether, that has a boiling point of 68° C. at ambient temperature, was then distilled from the solution. The distillation of the isopropyl ether organic extractant, was achieved by applying to the flask, containing the solution of acrylic acid, organic extractant and water, a reduced pressure of about 100 mm Hg, at room temperature (about 20-24° C.). The distillation was completed in about 5 minutes. The resulting isopropyl ether distillate that was collected, and the remaining aqueous solution in the flask, were weighed, and the concentration of acrylic acid in both the isopropyl ether distillate and in the aqueous solution, were determined by means of titration. The amount of acrylic acid that remained in the flask as the aqueous solution was 91%. […]

[3] = Aqueous Stock Solution No. 1 (0.67 wt % AA, 1.34 wt % 3HP)
[4] = Aqueous Stock Solution No. 5 (12.51 wt % AA, 25.05 wt % 3HP)
[5] = Aqueous Stock Solution No. 2 (3.33 wt % AA, 6.67 wt % 3HP)
[6] = Aqueous Stock Solution No. 3 (6.67 wt % AA, 13.34 wt % 3HP)
[7] = Aqueous Stock Solution No. 4 (9.99 wt % AA, 19.98 wt % 3HP)

For `ClCCl` [CH2Cl2, Methylene chloride], the “Acid in Aqueous Phase, wt % 3HP” value [1, 3] was 1.39 wt %, the “Acid in Aqueous Phase, wt % AA” value [1, 3] was 0.61 wt % and the “Acid in Extractant Phase, wt % AA” value [1, 3] was 0.04 wt %. The “Partition Coefficient, D AA” value [1, 3] was 0.06, the “Acid in Aqueous Phase, wt % 3HP” value [1, 4] was 25.05 wt % and the “Acid in Aqueous Phase, wt % AA” value [1, 4] was 7.84 wt %. For the same molecule, the “Acid in Extractant Phase, wt % 3HP” value [1, 4] was 0.53 wt %, the “Acid in Extractant Phase, wt % AA” value [1, 4] was 3.72 wt % and the “Separation Factor, S AA/3HP” value [1, 4] was 22.45. For the same molecule, the “Partition Coefficient, D 3HP” value [1, 4] was 0.02 and the “Partition Coefficient, D AA” value [1, 4] was 0.48.
For `CCCCCCCCCCO` [Decanol], the “Acid in Aqueous Phase, wt % 3HP” value [1, 3] was 1.37 wt %, the “Acid in Aqueous Phase, wt % AA” value [1, 3] was 0.31 wt % and the “Acid in Extractant Phase, wt % 3HP” value [1, 3] was 0.03 wt %. The “Acid in Extractant Phase, wt % AA” value [1, 3] was 0.47 wt %, the “Separation Factor, S AA/3HP” value [1, 3] was 77.18 and the “Acid in Aqueous Phase, wt % 3HP” value [1, 4] was 25.90 wt %. For the same molecule, the “Acid in Aqueous Phase, wt % AA” value [1, 4] was 5.94 wt %, the “Acid in Extractant Phase, wt % 3HP” value [1, 4] was 3.21 wt % and the “Acid in Extractant Phase, wt % AA” value [1, 4] was 8.20 wt %. For the same molecule, the “Separation Factor, S AA/3HP” value [1, 4] was 11.13.
For `CCOC(C)=O` [Ethyl Acetate, Ethyl acetate, reference compound], the “Acid in Aqueous Phase, wt % 3HP” value [1, 3] was 1.13 wt %, the “Acid in Aqueous Phase, wt % AA” value [1, 3] was 0.20 wt % and the “Acid in Extractant Phase, wt % 3HP” value [1, 3] was 0.20 wt %. For the same molecule, the “Acid in Extractant Phase, wt % AA” value [1, 3] was 0.59 wt %, the “Separation Factor, S AA/3HP” value [1, 3] was 16.55 and the “Acid in Aqueous Phase, wt % 3HP” value [1, 5] was 5.77 wt %. The “Acid in Aqueous Phase, wt % AA” value [1, 5] was 0.97 wt %, the “Acid in Extractant Phase, wt % 3HP” value [1, 5] was 1.21 wt % and the “Acid in Extractant Phase, wt % AA” value [1, 5] was 2.87 wt %. For the same molecule, the “Separation Factor, S AA/3HP” value [1, 5] was 14.18, the “Acid in Aqueous Phase, wt % 3HP” value [1, 6] was 11.38 wt % and the “Acid in Aqueous Phase, wt % AA” value [1, 6] was 2.02 wt %. The “Acid in Extractant Phase, wt % 3HP” value [1, 6] was 3.09 wt %, the “Acid in Extractant Phase, wt % AA” value [1, 6] was 5.36 wt % and the “Separation Factor, S AA/3HP” value [1, 6] was 9.79. The “Acid in Aqueous Phase, wt % 3HP” value [1, 7] was 17.08 wt %, the “Acid in Aqueous Phase, wt % AA” value [1, 7] was 3.18 wt % and the “Acid in Extractant Phase, wt % 3HP” value [1, 7] was 5.17 wt %. For the same molecule, the “Acid in Extractant Phase, wt % AA” value [1, 7] was 7.53 wt %, the “Separation Factor, S AA/3HP” value [1, 7] was 7.81 and the “Acid in Aqueous Phase, wt % 3HP” value [1, 4] was 21.16 wt %. For the same molecule, the “Acid in Aqueous Phase, wt % AA” value [1, 4] was 4.22 wt %, the “Acid in Extractant Phase, wt % 3HP” value [1, 4] was 8.68 wt % and the “Acid in Extractant Phase, wt % AA” value [1, 4] was 8.07 wt %. The “Separation Factor, S AA/3HP” value [1, 4] was 4.66.
In the case of `CC(=O)OC(C)C` [Isopropyl Acetate, Isopropyl acetate], the “Acid in Aqueous Phase, wt % 3HP” value [1, 3] is reported as 1.28 wt %, the “Acid in Aqueous Phase, wt % AA” value [1, 3] is reported as 0.24 wt % and the “Acid in Extractant Phase, wt % 3HP” value [1, 3] is reported as 0.06 wt %. For the same molecule, the “Acid in Extractant Phase, wt % AA” value [1, 3] was 0.52 wt %, the “Separation Factor, S AA/3HP” value [1, 3] was 43.36 and the “Partition Coefficient, D 3HP” value [1, 3] was 0.05. The “Partition Coefficient, D AA” value [1, 3] was 2.19, the “Acid in Aqueous Phase, wt % 3HP” value [1, 4] was 25.35 wt % and the “Acid in Aqueous Phase, wt % AA” value [1, 4] was 4.42 wt %. The “Acid in Extractant Phase, wt % 3HP” value [1, 4] was 3.82 wt %, the “Acid in Extractant Phase, wt % AA” value [1, 4] was 8.95 wt % and the “Separation Factor, S AA/3HP” value [1, 4] was 13.43. The “Partition Coefficient, D 3HP” value [1, 4] was 0.15 and the “Partition Coefficient, D AA” value [1, 4] was 2.02.
For `CC(C)OC(C)C` [Isopropyl Ether, Isopropyl ether], the “Acid in Aqueous Phase, wt % 3HP” value [1, 3] was 1.30 wt %, the “Acid in Aqueous Phase, wt % AA” value [1, 3] was 0.36 wt % and the “Acid in Extractant Phase, wt % 3HP” value [1, 3] was 0.04 wt %. For the same molecule, the “Acid in Extractant Phase, wt % AA” value [1, 3] was 0.44 wt %, the “Separation Factor, S AA/3HP” value [1, 3] was 40.59 and the “Acid in Aqueous Phase, wt % 3HP” value [1, 4] was 25.72 wt %. The “Acid in Aqueous Phase, wt % AA” value [1, 4] was 5.92 wt %, the “Acid in Extractant Phase, wt % 3HP” value [1, 4] was 1.85 wt % and the “Acid in Extractant Phase, wt % AA” value [1, 4] was 9.79 wt %. For the same molecule, the “Separation Factor, S AA/3HP” value [1, 4] was 22.91, the “amount of acrylic acid that remained in the flask as the aqueous solution” value [2] was 91% and the “amount of acrylic acid that was co-distilled with the extractant” value [2] was “about 7%”.
For `C=CC(=O)OC` [Methyl Acrylate, Methyl acrylate], the “Acid in Aqueous Phase, wt % 3HP” value [1, 3] was 1.24 wt %, the “Acid in Aqueous Phase, wt % AA” value [1, 3] was 0.25 wt % and the “Acid in Extractant Phase, wt % 3HP” value [1, 3] was 0.07 wt %. For the same molecule, the “Acid in Extractant Phase, wt % AA” value [1, 3] was 0.45 wt %, the “Separation Factor, S AA/3HP” value [1, 3] was 31.01 and the “Partition Coefficient, D 3HP” value [1, 3] was 0.06. For the same molecule, the “Partition Coefficient, D AA” value [1, 3] was 1.82, the “Acid in Aqueous Phase, wt % 3HP” value [1, 4] was 21.57 wt % and the “Acid in Aqueous Phase, wt % AA” value [1, 4] was 4.51 wt %. For the same molecule, the “Acid in Extractant Phase, wt % 3HP” value [1, 4] was 6.70 wt %, the “Acid in Extractant Phase, wt % AA” value [1, 4] was 8.13 wt % and the “Separation Factor, S AA/3HP” value [1, 4] was 5.80. The “Partition Coefficient, D 3HP” value [1, 4] was 0.31 and the “Partition Coefficient, D AA” value [1, 4] was 1.80.
In the case of `CCC(=O)OC` [Methyl Propionate, Methyl propionate], the “Acid in Aqueous Phase, wt % 3HP” value [1, 3] is reported as 1.22 wt %, the “Acid in Aqueous Phase, wt % AA” value [1, 3] is reported as 0.24 wt % and the “Acid in Extractant Phase, wt % 3HP” value [1, 3] is reported as 0.06 wt %. For the same molecule, the “Acid in Extractant Phase, wt % AA” value [1, 3] was 0.51 wt %, the “Separation Factor, S AA/3HP” value [1, 3] was 44.43 and the “Partition Coefficient, D 3HP” value [1, 3] was 0.05. The “Partition Coefficient, D AA” value [1, 3] was 2.13, the “Acid in Aqueous Phase, wt % 3HP” value [1, 4] was 22.63 wt % and the “Acid in Aqueous Phase, wt % AA” value [1, 4] was 4.54 wt %. The “Acid in Extractant Phase, wt % 3HP” value [1, 4] was 5.54 wt %, the “Acid in Extractant Phase, wt % AA” value [1, 4] was 8.55 wt % and the “Separation Factor, S AA/3HP” value [1, 4] was 7.69. For the same molecule, the “Partition Coefficient, D 3HP” value [1, 4] was 0.25 and the “Partition Coefficient, D AA” value [1, 4] was 1.88.
With `CC(=O)CC(C)C` [MiBK, Methyl isobutyl ketone] the “Acid in Aqueous Phase, wt % 3HP” value [1, 3] was 1.32 wt %, the “Acid in Aqueous Phase, wt % AA” value [1, 3] was 0.23 wt % and the “Acid in Extractant Phase, wt % 3HP” value [1, 3] was 0.03 wt %. For the same molecule, the “Acid in Extractant Phase, wt % AA” value [1, 3] was 0.59 wt %, the “Separation Factor, S AA/3HP” value [1, 3] was 108.82 and the “Acid in Aqueous Phase, wt % 3HP” value [1, 4] was 24.17 wt %. For the same molecule, the “Acid in Aqueous Phase, wt % AA” value [1, 4] was 4.11 wt %, the “Acid in Extractant Phase, wt % 3HP” value [1, 4] was 5.46 wt % and the “Acid in Extractant Phase, wt % AA” value [1, 4] was 9.92 wt %. For the same molecule, the “Separation Factor, S AA/3HP” value [1, 4] was 10.69.
For `Cc1ccccc1` [Toluene], the “Acid in Aqueous Phase, wt % 3HP” value [1, 3] was 1.42 wt %, the “Acid in Aqueous Phase, wt % AA” value [1, 3] was 0.69 wt % and the “Acid in Aqueous Phase, wt % 3HP” value [1, 4] was 26.72 wt %. For the same molecule, the “Acid in Aqueous Phase, wt % AA” value [1, 4] was 10.57 wt % and the “Acid in Extractant Phase, wt % AA” value [1, 4] was 2.47 wt %.
